Values belong to the compound of their own block, whether it stands above or below them. Activity calls are given as the source filed them. The rule behind the calls is not given here.
Assays:
[1] = test system: GC rich DNA; assay: Displacement of Ethidium bromide from native ds-GC12 short DNA (unknown origin) by Stern-Volmer quenching plot analysis; type: nucleic-acid assay
[2] = test system: DNA; assay: Induction of GC-rich pYUB12 plasmid DNA (unknown origin) unwinding assessed as DNA structural changes at DNA base-pair to compound ratio of 1:6 incubated for 16 hrs by mobility shift assay; type: nucleic-acid assay
[3] = test system: Calf thymus DNA; assay: Binding affinity to calf thymus DNA by isothermal titration calorimetry; type: nucleic-acid assay; conditions: Bos taurus
[4] = test system: GC rich DNA; assay: Disruption of native ds-GC12 DNA (unknown origin) base stacking interaction assessed as decrease in positive peak intensity at 283 nm at DNA base-pair to compound ratio of 1:4 by circular dichroism analysis; type: nucleic-acid assay
[5] = test system: Calf thymus DNA; assay: Binding affinity to calf thymus DNA assessed as change in free energy by isothermal titration calorimetry; type: nucleic-acid assay; conditions: Bos taurus
[6] = test system: Calf thymus DNA; assay: Binding affinity to calf thymus DNA assessed as change in entropy by isothermal titration calorimetry; type: nucleic-acid assay; conditions: Bos taurus
[7] = test system: Calf thymus DNA; assay: Binding affinity to calf thymus DNA assessed as change in enthalpy by isothermal titration calorimetry; type: nucleic-acid assay; conditions: Bos taurus
[8] = test system: GC rich DNA; assay: Disruption of native ds-GC12 DNA (unknown origin) base stacking interaction assessed as DNA structural changes by circular dichroism analysis; type: nucleic-acid assay
[9] = test system: DNA; assay: Induction of GC-rich pYUB12 plasmid DNA (unknown origin) unwinding assessed as DNA structural changes at DNA base-pair to compound ratio of 1:4 incubated for 16 hrs by mobility shift assay; type: nucleic-acid assay
[10] = Induction of histone eviction from single assembled nucleosome (unknown origin) assessed as reduction in nucleosome band intensity at 75 uM incubated for 4 hrs by silver staining based gel electrophoresis assay
[11] = test system: DNA; assay: Induction of GC-rich pYUB12 plasmid DNA (unknown origin) unwinding assessed as complete structural change with DNA condensation by measuring increase in condensed DNA band intensity at DNA base-pair to compound ratio of 1:1.5 incubated for 16 hrs by mobility shift assay; type: nucleic-acid assay
[12] = test system: GC rich DNA; assay: Disruption of native ds-GC12 DNA (unknown origin) base stacking interaction assessed as appearance of ICD at 325 nm by circular dichroism analysis; type: nucleic-acid assay
[13] = test system: DNA; assay: Induction of GC-rich pYUB12 plasmid DNA (unknown origin) unwinding assessed as complete conformational change as condensed form at DNA base-pair to compound ratio of 1:2 incubated for 16 hrs by mobility shift assay; type: nucleic-acid assay
[14] = test system: GC rich DNA; assay: Disruption of native ds-GC12 DNA (unknown origin) base stacking interaction assessed as decrease in positive peak intensity at 283 nm by circular dichroism analysis; type: nucleic-acid assay
[15] = test system: GC rich DNA; assay: Disruption of native ds-GC12 DNA (unknown origin) base stacking interaction assessed as appearance of ICD at 320 to 330 nm by circular dichroism analysis; type: nucleic-acid assay

- KSV [1]: < 1 10^4/M
- Ka [3]: 3.96 10^4/M
- Activity [4]: Active
- deltaG [5]: -6.38 kcal/mol
- TdeltaS [6]: 4.88 kcal/mol
- Activity [2]: Active
- deltaH [7]: -1.5 kcal/mol
SMILES: CN(C)CCCNc1nc2cc([N+](=O)[O-])ccc2nc1NCc1ccc(O)cc1

- KSV [1]: 1.7 10^4/M
- Ka [3]: 1.54 10^5/M
- Activity [8]: Active
- Activity [9]: Active
- deltaG [5]: -7.2 kcal/mol
- TdeltaS [6]: 5.34 kcal/mol
- deltaH [7]: -1.86 kcal/mol
SMILES: Cc1ccc(CNc2nc3ccc([N+](=O)[O-])cc3nc2NCCCN(C)C)cc1

- KSV [1]: 4.6 10^4/M
- Activity [10]: Active
- Activity [11]: Active
- Activity [12]: Active
- Activity [13]: Active
SMILES: CN(C)CCCNc1nc2cc([N+](=O)[O-])ccc2nc1NCc1ccc(C(F)(F)F)cc1

- KSV [1]: 2.4 10^4/M
- Activity [14]: Active
- Activity [9]: Active
- Activity [15]: Active
SMILES: CN(C)CCCNc1nc2cc([N+](=O)[O-])ccc2nc1NCc1ccc(Cl)cc1

- KSV [1]: < 1 10^4/M
- Activity [4]: Active
- Activity [2]: Active
SMILES: CN(C)CCCNc1nc2cc([N+](=O)[O-])ccc2nc1NCc1ccc(N)cc1

More lines, now with the values behind:

SMILES: CN(C)CCCNc1nc2cc([N+](=O)[O-])ccc2nc1NCc1ccc(C#N)cc1
- KSV [1]: < 1 10^4/M
- Activity [2]: Active

SMILES: CN(C)CCCNc1nc2cc([N+](=O)[O-])ccc2nc1NCc1ccncc1
- KSV [1]: < 0.3 10^4/M

SMILES: CN(C)CCCNc1nc2cc([N+](=O)[O-])ccc2nc1NCc1ccccc1
- KSV [1]: < 1 10^4/M
- Activity [4]: Active
- Activity [2]: Active

Reference: ChEMBL document CHEMBL5154651, “Substituent effect of benzyl moiety in nitroquinoxaline small molecules upon DNA binding: Cumulative destacking of DNA nucleobases leading to histone eviction” (Eur J Med Chem, 2022)
